# Test results taken from ChEMBL document CHEMBL1914340, “Effect of the leukotriene A4 hydrolase aminopeptidase augmentor 4-methoxydiphenylmethane in a pre-clinical model of pulmonary emphysema” (Bioorg Med Chem Lett, 2011).
# Activity calls are given as the source filed them. No cut-off for these calls is given here.
# What was measured:
# Mus musculus [1] = assay: Antiemphysema activity in wild type mouse assessed as shorter chord length at 30 mg/kg, ip qd for 28 days measured after 18 hrs of post mortem by volume displacement technique relative to vehicle-treated control; assay type: functional, organism-based; parameters: dose 30 mg/kg
# Mus musculus [2] = assay: Antiemphysema activity in wild type mouse assessed as reduction in intranasal elastase-induced lung volume at 30 mg/kg, ip qd for 28 days measured after 18 hrs of post mortem by volume displacement technique relative to vehicle-treated control; assay type: functional, organism-based; parameters: dose 30 mg/kg
# Mus musculus [3] = assay: Effect on intransal elastase-induced LTB4 level in broncho alveolar lavage fluid in ip dosed mouse by ELISA (reference value: 93.1 +/- 26.1 pg/mL); assay type: functional, organism-based
# [4] = Chemical stability of the compound assessed as degradation at pH 6.8; assay type: physicochemical; conditions: buffer
# [5] = target: T1, Leukotriene A-4 hydrolase (Homo sapiens) (UniProt P09960); assay: Activation of aminopeptidase activity of LTA4H assessed as compound concentration required to 50% activation using L-alanine-p-nitroanilide as substrate by spectrophotometry
# T1 sequence (whole entry): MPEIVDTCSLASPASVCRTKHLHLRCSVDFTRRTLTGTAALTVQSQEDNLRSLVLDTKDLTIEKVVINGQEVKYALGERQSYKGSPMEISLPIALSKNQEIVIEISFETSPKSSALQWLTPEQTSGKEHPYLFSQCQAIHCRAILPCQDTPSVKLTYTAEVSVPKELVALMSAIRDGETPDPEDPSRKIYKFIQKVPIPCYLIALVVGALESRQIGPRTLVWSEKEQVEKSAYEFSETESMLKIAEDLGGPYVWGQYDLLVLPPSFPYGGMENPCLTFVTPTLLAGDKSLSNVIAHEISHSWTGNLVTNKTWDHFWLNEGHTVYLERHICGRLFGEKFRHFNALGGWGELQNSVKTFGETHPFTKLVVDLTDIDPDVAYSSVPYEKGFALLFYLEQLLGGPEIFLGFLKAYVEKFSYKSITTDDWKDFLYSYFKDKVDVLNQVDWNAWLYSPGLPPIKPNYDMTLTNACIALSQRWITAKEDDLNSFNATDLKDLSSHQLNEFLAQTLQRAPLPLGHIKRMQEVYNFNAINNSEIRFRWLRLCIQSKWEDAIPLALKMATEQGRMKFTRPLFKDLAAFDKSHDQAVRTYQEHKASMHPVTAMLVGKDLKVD
# Mus musculus [6] = assay: Antiemphysema activity in wild type mouse assessed as reduction in intranasal elastase-induced lung compliance at 30 mg/kg, ip qd for 28 days by flexivent relative to vehicle-treated control; assay type: functional, organism-based; parameters: dose 30 mg/kg
# [7] = Toxicity in mouse; assay type: organism-based; conditions: in vivo
Structure (SMILES),Activity (Mus musculus [1]),Activity (Mus musculus [2]),Activity (Mus musculus [3]),Stability [4],Activity [5],Activity (Mus musculus [6]),MTD [7]
COc1ccc(Cc2ccccc2)cc1,Active,Active,inactive,Stable,50 µM,Active,
COc1ccc(Oc2ccccc2)cc1,,,,Unstable,,,30 mg/kg
